{"source": "patent US6881825B1", "about": "“Identication of peptides that facilitate uptake and cytoplasmic and/or nuclear transport of proteins, DNA and virues” (University of Pittsburgh of The Commonwealth System of …, priority 1999, dated 2005)", "key": {"[1]": {"system": "arthritic rabbit knee joints", "assay": "IL-1-induced arthritis, intra-articular peptide, TUNEL/histology and lavage white blood cells", "type": "in vivo", "details": "arthritic rabbit knees; FIG. 18", "method": "In addition, the death peptide was administered to rabbits with IL-1-induced arthritis (see Ghivizzani et al. J. Immunol. 159:3604 (1997)). Three arthritic rabbits received the death peptide, three received peptide 5 alone and 3 received the apoptotic protein alone. The rabbits were sacrificed 24 or 72 hours post-injection of the peptides and the rabbit knee capsules were removed for histology analysis and TUNEL staining."}, "HIG82 cells": {"system": "HIG82 cells", "assay": "Cell viability by MTT assay (OD 570 nm)", "type": "cell-based, rabbit", "details": "HIG-82 cells; 100-3.1 μM peptide, three hours; FIG. 14, 15", "method": "2×10^5 cells (HIG82, MCA205 or Jurkatt) were seeded into 24 well plates. Forty-eight hours later, 100 μM, 50 μM, 25 μM, 6.25 μM and 3.1 μM of the either the death peptide (SEQ ID NO:24), peptide 5 alone (SEQ ID NO:5) or the apoptotic peptide alone (SEQ ID NO:23) was added to the cells. To check for cell viability, three hours later, the media was aspirated and 1 ml of scrum-free media containing 0.25 mg of MTT was added to each well and incubated for 4 hours at 37° C. MTT-containing media was then removed and 1 ml of absolute isopropanol containing 0.4N HCl was added. Photographs were taken of the plates, then the cells were harvested and any debris was centrifuged. OD as taken at λ=570 nm. Each sample point was performed in triplicate."}, "MCA205 fibrosarcomas": {"system": "MCA205 fibrosarcomas", "assay": "TUNEL and H&E staining of treated MCA205 fibrosarcomas", "type": "in vivo, C57BL/6 mice", "details": "11 days daily treatment, sacrificed three hours after last injection; FIG. 16C", "method": "To determine whether the death peptide could induce apoptosis in tumor cells and inhibit tumor growth in vivo, C57BL/6 mice bearing day 7 tumors in each […] (seeded with 1×10^5 MCA205 cells) were injected daily for 10 days with a 50 μl volume of 1 mM death peptide (SEQ ID NO:24; DP1) or the apoptotic peptide alone (SEQ ID NO:23; KLA) or a saline mock into both tumors. Five mice were used in each group. Tumor volume was estimated by multiplying maximum length×width^2. Separately, C57BL/6 with single, day 12 tumors were injected with 1 mM death peptide (SEQ ID NO:24; DP1), apoptotic peptide alone (SEQ ID NO:23; KLA) or saline for eleven days. Ten mice comprised each group. On the final day, the mice were injected with the appropriate saline or peptide solution and sacrificed 3 hours post-injection. Tumors were paraffin-embedded, sectioned, and stained for TUNEL and counterstained with methyl green or stained with hematoxylin and eosin to reveal histologic architecture.\nTo test whether apoptosis was the mechanism of tumor killing in vivo and to study the effects of death peptide administration on tumor architecture, fibrosarcomas treated daily for 11 days with death peptide (SEQ ID NO:24; DP1), apoptotic peptide alone (SEQ ID NO:23, KLA) or tris buffered saline (TBS) were injected with 50 μl of 1 mM DP1, KLA or TBS on the eleventh day and sacrificed three hours later. […]"}}, "data": [{"sequence": "KLAKLAKKLAKLAK (random peptide library)", "values": [{"measurement": "apoptosis of hyperplastic synovium", "setting": "[1]", "value": "did not"}, {"measurement": "cell viability (MTT, OD570)", "setting": "HIG82 cells", "value": "did not impair viability"}, {"measurement": "apoptosis in tumors (TUNEL staining)", "setting": "MCA205 fibrosarcomas", "value": "No TUNEL staining"}]}]}
